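1) Cells in 96-well plates. 2) Compound, 48 h, 5 concentrations. 3) Linear interpolation between surrounding doses. 4) Unreached endpoint = highest concentration. GI50: concentration for 50% inhibition of growth.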 The source made the active and inactive calls. No stated cut-off is given here; in the data, active = GI50 up to about 1.1 µM and inactive = higher.
Columns and labels:
Assay in all cases: inhibition of tumour cell growth, NCI panel, 48 h
[1] = test system: NCI-H460
[2] = test system: K562
[3] = test system: HCT-116
[4] = test system: HCC 2998
[5] = test system: SK-OV-3
[6] = test system: SN12C
[7] = test system: DLD-1
[8] = test system: UACC-257
[9] = test system: IGROV-1
[10] = test system: HCT-15
[11] = test system: SF-268
[12] = test system: MOLT-4
[13] = test system: NCI-H23
[14] = test system: NCI-H522
[15] = test system: RXF 393
[16] = test system: Hs-578T
[17] = test system: PC-3
[18] = test system: T47D
[19] = test system: NCI/ADR-RES
[20] = test system: MDA-MB-435

| Compound | GI50 [1] | GI50 [2] | GI50 [3] | GI50 [4] | GI50 [5] | GI50 [6] | GI50 [7] | GI50 [8] | GI50 [9] | GI50 [10] | GI50 [11] | GI50 [12] | GI50 [13] | GI50 [14] | GI50 [15] | GI50 [16] | GI50 [17] | GI50 [18] | GI50 [19] | GI50 [20] |
| --- | --- | --- | --- | --- | --- | --- | --- | --- | --- | --- | --- | --- | --- | --- | --- | --- | --- | --- | --- | --- |
| CCN(CC)CCCCC1CCN(CC(=O)N2CC(C)C(=O)Nc3ccccc32)CC1 (centres undefined) | > 100 µM (inactive) | > 100 µM (inactive) | > 100 µM (inactive) | > 100 µM (inactive) | > 100 µM (inactive) | > 100 µM (inactive) | > 100 µM (inactive) | > 100 µM (inactive) | > 100 µM (inactive) | > 100 µM | > 100 µM (inactive) | > 100 µM (inactive) | > 100 µM (inactive) | – | – | – | – | – | – | – |
| CC1(C)CC(N(C(=O)/C=C/c2ccc([N+](=O)[O-])o2)C2CCCCC2)CC(C)(C)N1 | 3.71 µM (inactive) | – | 3.18 µM (inactive) | 11.3 µM (inactive) | 28.6 µM (inactive) | 6.22 µM (inactive) | 1.73 µM (inactive) | 11.1 µM (inactive) | 14.3 µM (inactive) | 7.45 µM | 7.62 µM (inactive) | 3.96 µM (inactive) | 9.46 µM (inactive) | 7.91 µM (inactive) | – | – | – | – | – | – |
| O=C(O)COc1ccc(C(=O)/C(SS/C(C(=O)c2ccc(OCC(=O)O)c(Cl)c2Cl)=C2\C=C(c3ccc(Cl)cc3)SS2)=C2/C=C(c3ccc(Cl)cc3)SS2)c(Cl)c1Cl | 19.1 µM (inactive) | 2.43 µM (inactive) | 9.08 µM (inactive) | 12.4 µM (inactive) | 56.1 µM (inactive) | 0.319 µM (active) | 11.6 µM (inactive) | 78.2 µM (inactive) | 13.3 µM (inactive) | 5.78 µM | 11.2 µM (inactive) | 3.58 µM (inactive) | 9.23 µM (inactive) | 2.18 µM (inactive) | – | – | – | – | – | – |
| CN1CC(=O)N(C)c2[nH]cnc2C1=O | > 100 µM (inactive) | > 100 µM (inactive) | – | > 100 µM (inactive) | > 100 µM (inactive) | > 100 µM (inactive) | > 100 µM (inactive) | – | > 100 µM (inactive) | > 100 µM | > 100 µM (inactive) | > 100 µM (inactive) | > 100 µM (inactive) | – | > 100 µM (inactive) | – | – | – | – | – |
| CN(C)CCOC1(CC2CCCCC2)CCC(C(C)(C)C)CC1 (centres undefined) | 3.67 µM (inactive) | 2.04 µM (inactive) | 4.36 µM (inactive) | 4.38 µM (inactive) | 11.6 µM (inactive) | 6.46 µM (inactive) | – | 4.61 µM (inactive) | 8.71 µM (inactive) | 3.75 µM | 10.5 µM (inactive) | 2.49 µM (inactive) | 8.43 µM (inactive) | 1.56 µM (inactive) | 3.72 µM (inactive) | 6.78 µM (inactive) | 4.1 µM (inactive) | 3.34 µM (inactive) | 9.62 µM (inactive) | 4.74 µM (inactive) |
| N=C(N)SCc1ccc(N=C=S)cc1 | 14.9 µM (inactive) | 11.7 µM (inactive) | 14 µM (inactive) | 16.6 µM (inactive) | 17.3 µM (inactive) | 14.5 µM (inactive) | – | 13.1 µM (inactive) | 12.9 µM (inactive) | 11.3 µM | 20.2 µM (inactive) | > 100 µM (inactive) | 14.2 µM (inactive) | 10 µM (inactive) | 3.56 µM (inactive) | 12.6 µM (inactive) | 15.9 µM (inactive) | 13.6 µM (inactive) | 16.9 µM (inactive) | 13.1 µM (inactive) |
| Cc1ccc2c(c1C)-c1c(ccc(C)c1C)C(=O)C2=O | 0.966 µM (active) | 0.266 µM (active) | 0.361 µM (active) | 3.7 µM (inactive) | 2.15 µM (inactive) | 0.817 µM (active) | – | 1.37 µM (inactive) | 0.357 µM (active) | 0.292 µM | 0.385 µM (active) | 0.2 µM (active) | 0.53 µM (active) | 0.148 µM (active) | 0.337 µM (active) | 0.342 µM (active) | 0.265 µM (active) | 1.81 µM (inactive) | 0.151 µM (active) | 0.21 µM (active) |
| C/C=C(\C)C(=O)OC1CC(OC(C)=O)C2(C(=O)OC)COC3C2C1(C)C1C2(C(=O)OC)OCC1(C3O)C1(O)C3CC(C4(O)C=COC4O3)C1(C)O2 (centres undefined) | > 100 µM (inactive) | > 100 µM (inactive) | > 100 µM (inactive) | 62.5 µM (inactive) | > 100 µM (inactive) | > 100 µM (inactive) | – | > 100 µM (inactive) | > 100 µM (inactive) | > 100 µM | > 100 µM (inactive) | > 100 µM (inactive) | > 100 µM (inactive) | > 100 µM (inactive) | > 100 µM (inactive) | > 100 µM (inactive) | > 100 µM (inactive) | > 100 µM (inactive) | > 100 µM (inactive) | 40.8 µM (inactive) |
| COC1CC(N)C(O)C(C)O1 (centres undefined) | > 100 µM (inactive) | > 100 µM (inactive) | > 100 µM (inactive) | > 100 µM (inactive) | > 100 µM (inactive) | > 100 µM (inactive) | – | > 100 µM (inactive) | > 100 µM (inactive) | > 100 µM | > 100 µM (inactive) | > 100 µM (inactive) | > 100 µM (inactive) | > 100 µM (inactive) | > 100 µM (inactive) | > 100 µM (inactive) | > 100 µM (inactive) | > 100 µM (inactive) | > 100 µM (inactive) | > 100 µM (inactive) |
| COC(=O)c1ccc(O)c2nc3c(C=O)c(O)cc(O)c3nc12 [LOMOFUNGIN] | 0.413 µM (active) | 0.0847 µM (active) | 0.0977 µM (active) | 4.93 µM (inactive) | 2.96 µM (inactive) | 0.499 µM (active) | – | 0.782 µM (active) | 0.206 µM (active) | 0.22 µM | 0.428 µM (active) | 0.225 µM (active) | 0.139 µM (active) | 0.755 µM (active) | 7.18 µM (inactive) | 1.21 µM (inactive) | 0.661 µM (active) | 0.397 µM (active) | 0.0998 µM (active) | 0.935 µM (active) |
| O=[N+]([O-])C(=C(N1CCCCC1)N1CCCCC1)/C(Cl)=C(\Cl)[N+](=O)[O-] | 22.5 µM (inactive) | 1 µM (active) | 2.61 µM (inactive) | 22.1 µM (inactive) | 23.2 µM (inactive) | 1.67 µM (inactive) | – | 7.71 µM (inactive) | 1.72 µM (inactive) | 2.17 µM | 12.1 µM (inactive) | 1.14 µM (inactive) | 5.6 µM (inactive) | 1.76 µM (inactive) | 1.31 µM (inactive) | 4.86 µM (inactive) | 14.3 µM (inactive) | 1.84 µM (inactive) | 22.7 µM (inactive) | 5.01 µM (inactive) |
| CCOC(=O)N1N=C(/C(C)=N/OC)C(C)[S+]1[O-] (centres undefined) | 57.7 µM (inactive) | > 100 µM (inactive) | > 100 µM (inactive) | > 100 µM (inactive) | > 100 µM (inactive) | > 100 µM (inactive) | – | > 100 µM (inactive) | > 100 µM (inactive) | > 100 µM | > 100 µM (inactive) | > 100 µM (inactive) | > 100 µM (inactive) | > 100 µM (inactive) | > 100 µM (inactive) | > 100 µM (inactive) | > 100 µM (inactive) | > 100 µM (inactive) | > 100 µM (inactive) | > 100 µM (inactive) |
